Results reported in patent US20100249698A1, “CONTROLLED EXOTHERM OF CYANOACRYLATE FORMULATIONS” (priority 2009, published 2010).

Key:
[1] = potentiometric titration at 25° C. in 0.15 M sodium chloride solution; cited from earlier work
[2] = Setting time and exotherm (setting temperature) of cyanoacrylate film polymerized via initiator-impregnated porous applicator tip; format: physicochemical; conditions: Quadrol as initiator in porous tip with 2-OCA formulations A and B

CC(O)CN(CCN(CC(C)O)CC(C)O)CC(C)O (stereo not drawn) [Quadrol, N,N,N′,N′-tetrakis(2-hydroxypropyl)ethylenediamine]
pKa1 (tertiary amine group) [1]: 8.99±0.04
pKa2 (quaternary ammonium form) [1]: 4.30±0.04
cure time [2]: clinically acceptable timeframe
